The record followed here is patent US8778966B2, “Quinolinone derivatives as PARP and tank inhibitors” (Janssen Pharmaceutica, NV, priority 2007, dated 2014).

One assay concerns the target T1, TANK-2 enzyme (Homo sapiens, UniProt Q9H2K2).
T1 construct: made in house
T1 sequence (Q9H2K2 1-1166): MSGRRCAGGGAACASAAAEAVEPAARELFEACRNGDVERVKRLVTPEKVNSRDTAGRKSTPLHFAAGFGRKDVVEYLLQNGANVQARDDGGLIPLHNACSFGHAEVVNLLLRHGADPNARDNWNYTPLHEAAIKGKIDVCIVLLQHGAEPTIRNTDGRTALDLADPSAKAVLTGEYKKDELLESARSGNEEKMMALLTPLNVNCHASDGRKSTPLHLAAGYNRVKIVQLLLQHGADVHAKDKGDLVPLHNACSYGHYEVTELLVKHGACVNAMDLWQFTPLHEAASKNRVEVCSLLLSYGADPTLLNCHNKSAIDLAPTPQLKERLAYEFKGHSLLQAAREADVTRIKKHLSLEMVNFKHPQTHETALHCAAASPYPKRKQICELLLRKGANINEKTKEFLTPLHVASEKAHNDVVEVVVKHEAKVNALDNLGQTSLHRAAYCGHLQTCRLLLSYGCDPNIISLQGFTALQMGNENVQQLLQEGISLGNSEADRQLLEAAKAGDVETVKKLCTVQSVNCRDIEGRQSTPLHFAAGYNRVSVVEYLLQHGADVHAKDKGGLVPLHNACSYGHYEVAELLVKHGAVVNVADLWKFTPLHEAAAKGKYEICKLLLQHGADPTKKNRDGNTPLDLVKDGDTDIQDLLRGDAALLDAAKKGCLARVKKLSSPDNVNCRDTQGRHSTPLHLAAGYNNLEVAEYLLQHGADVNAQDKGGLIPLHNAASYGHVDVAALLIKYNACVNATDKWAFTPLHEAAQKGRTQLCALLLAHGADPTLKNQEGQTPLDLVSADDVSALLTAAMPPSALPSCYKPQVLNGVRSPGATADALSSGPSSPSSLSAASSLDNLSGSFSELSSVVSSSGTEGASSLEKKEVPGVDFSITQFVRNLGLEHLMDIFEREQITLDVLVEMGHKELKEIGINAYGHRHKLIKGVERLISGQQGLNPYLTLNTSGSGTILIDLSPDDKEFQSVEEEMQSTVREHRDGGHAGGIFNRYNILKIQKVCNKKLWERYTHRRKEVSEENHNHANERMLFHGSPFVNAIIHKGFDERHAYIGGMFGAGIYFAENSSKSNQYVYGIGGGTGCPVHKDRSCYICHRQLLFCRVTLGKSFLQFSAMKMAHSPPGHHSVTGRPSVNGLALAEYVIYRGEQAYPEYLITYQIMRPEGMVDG
The experiment in a line: In vitro Scintillation Proximity Assay (SPA) for TANK-2 inhibitory activity. It is filed as biochemical. The note with it: read-out: in vitro SPA assay TANK-2 pIC50 (converted). The method in brief: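 TANK-2 (8 μg/ml final) auto-poly(ADP-ribosyl)ation with [3H]-NAD+/NAD donor was run in Ni flash plates in Tris/HCl pH 7.4 buffer with DTT and MgCl2, 120 min at room temperature, then stopped with excess NAD and scintillation-counted. Blank-corrected cpm was expressed as % of enzyme control, and IC50 was linearly interpolated and reported as pIC50.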

In another assay the test system is PC3 cells. The experiment in a line: EB1 Comet (microtubule disruption) assay. It is filed as cell-based, human. The settings on record: Homo sapiens, PC-3, 1 h, 1 hour treatment, read-out: EB1 pLAC (converted). Summed up: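 PC3 human prostate cancer cells exposed to compound for 1 h at 37 °C (0.6% DMSO final), methanol-fixed, immunostained for Eb1 and imaged at 20×. Value is the lowest active concentration (LAC): the concentration at which Eb1 foci are absent in at least 50% of treated cells.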

The structures appear in SMILES notation. Where only a bound is given, the exact number is not on record here.

Regarding `CCc1cc2ccc(C(C)(C#N)Cc3nc4ccccc4n3C)cc2[nH]c1=O` (centres unmarked) [Compound 338], the IC50 at TANK-2 enzyme is 0.501 µM. Moreover, in the assay with PC3 cells, the minimal effective concentration is 1 µM.

In the case of `CCc1cc2ccc(C(C)(C#N)Cc3cccc(/C=C/S(C)(=O)=O)c3)cc2[nH]c1=O` (centres unmarked) [Compound 292], the IC50 on TANK-2 enzyme was 0.126 µM. Moreover, in the assay on PC3 cells, the minimal effective concentration was 0.1 µM.

As for `CCc1cc2ccc(C(C)(C#N)Cc3cccc(C#C[Si](C)(C)C)n3)cc2[nH]c1=O` (centres unmarked) [Compound 210], at TANK-2 enzyme, the IC50 is 3.98 µM. Also, the minimal effective concentration with PC3 cells is 0.316 µM.

As to `CCc1cc2ccc(C(C)(C#N)Cc3ccc(C)nc3)cc2[nH]c1=O` (centres unmarked) [Compound 327], the IC50 on TANK-2 enzyme is 0.631 µM. For the molecule `CCc1cc2ccc(C(C)(C#N)Cc3ccc(OC)nc3)cc2[nH]c1=O` (centres unmarked) [Compound 352], the IC50 at TANK-2 enzyme is 0.631 µM. Moreover, the minimal effective concentration in the assay with PC3 cells is 1 µM.

As to `CCOc1cc(OCC)nc(CC(C)(C#N)c2ccc3cc(CC)c(=O)[nH]c3c2)n1` (centres unmarked) [Compound 309], on TANK-2 enzyme, the IC50 was 2 µM. The minimal effective concentration with PC3 cells was 3.16 µM. For `CCc1cc2ccc(C(C)(C#N)Cc3cccc(OC)n3)cc2[nH]c1=O` (centres unmarked) [Compound 353], the IC50 on TANK-2 enzyme is 0.2 µM. For `CCc1cc2ccc(C(C)(C#N)Cc3ccc4ccccc4n3)cc2[nH]c1=O` (centres unmarked) [Compound 336], the IC50 on TANK-2 enzyme was 0.1 µM. Further, in the assay on PC3 cells, the minimal effective concentration is 1 µM.

Turning to `CCc1cc2ccc(C(C)(C#N)Cc3cc(N(C)C)nc(Cl)n3)cc2[nH]c1=O` (centres unmarked) [Compound 364], the IC50 on TANK-2 enzyme is 0.1 µM. In addition, in the assay on PC3 cells, the minimal effective concentration is 1 µM.

In the case of `CCc1cc2ccc(C(C)(C#N)Cc3nc(Cl)cc(N(C)C)n3)cc2[nH]c1=O` (centres unmarked) [Compound 359], the IC50 on TANK-2 enzyme is 0.1 µM. Besides, in the assay with PC3 cells, the minimal effective concentration is 0.1 µM.

Turning to `CCc1cc2ccc(C(C)(C#N)CC3CCc4ccccc4O3)cc2[nH]c1=O` (centres unmarked) [Compound 399], the IC50 on TANK-2 enzyme is 0.1 µM. Moreover, in the assay with PC3 cells, the minimal effective concentration is 0.316 µM. On to `COc1cc(OC)nc(CC(C)(C#N)c2ccc3cc(C)c(=O)[nH]c3c2)n1` (centres unmarked) [Compound 308], for which the IC50 on TANK-2 enzyme is 3.16 µM.

With `CCc1cc2ccc([C@@](C)(C#N)Cc3cccc(C#N)c3)cc2[nH]c1=O` (single isomer, unassigned) [Compound 268], the IC50 on TANK-2 enzyme was 0.0794 µM.

In the case of `CCc1cc2ccc(C(C)(C#N)Cc3cccc(Br)n3)cc2[nH]c1=O` (centres unmarked) [Compound 344], on TANK-2 enzyme, the IC50 is 0.316 µM. In the assay on PC3 cells, the minimal effective concentration is 0.316 µM. For `CCc1cc2ccc(C(C)(C#N)Cc3cccc(OCCO)c3)cc2[nH]c1=O` (centres unmarked) [Compound 262], the IC50 at TANK-2 enzyme is 0.631 µM.

Regarding `CCc1cc2ccc(C(C)(C#N)Cc3cccc(Cl)n3)cc2[nH]c1=O` (centres unmarked) [Compound 310], the IC50 at TANK-2 enzyme is 0.251 µM. The minimal effective concentration with PC3 cells was 1 µM. Take `CCc1cc2cc(OC)c(C(C)(C#N)Cc3ccccc3)cc2[nH]c1=O` (centres unmarked) [Compound 294]: the IC50 on TANK-2 enzyme is 0.158 µM. As to `CCc1cc2ccc(C(C)(C#N)Cc3cnc(Cl)nc3Cl)cc2[nH]c1=O` (centres unmarked) [Compound 306], the IC50 at TANK-2 enzyme is 0.126 µM. Moreover, the minimal effective concentration in the assay with PC3 cells is 3.16 µM. For `CCc1cc2ccc(C(C)(C#N)Cc3nccn3CC)cc2[nH]c1=O` (centres unmarked) [Compound 337] the same measures were 0.631 µM and 1 µM. As for `CCc1cc2ccc(C(C)(C#N)CNCc3cccc(C#N)c3)cc2[nH]c1=O` (centres unmarked) [Compound 301], the IC50 at TANK-2 enzyme was 0.0794 µM. For the same molecule, the minimal effective concentration in the assay with PC3 cells was 3.16 µM. Regarding `CCc1cc2ccc(C(C)(C#N)Cc3cccc(C#N)n3)cc2[nH]c1=O` (centres unmarked) [Compound 329], at TANK-2 enzyme, the IC50 is 0.316 µM. Moreover, in the assay on PC3 cells, the minimal effective concentration was 0.316 µM. For `CCc1cc2ccc(C(C)(C#N)Cc3cc(OCCOC)nc(C)n3)cc2[nH]c1=O` (centres unmarked) [Compound 363], at TANK-2 enzyme, the IC50 is 0.158 µM. Further, the minimal effective concentration in the assay on PC3 cells was 1 µM. With `CCc1cc2ccc(C(C)(C#N)Cc3cccc(OCCOC)n3)cc2[nH]c1=O` (centres unmarked) [Compound 219], the IC50 at TANK-2 enzyme was 0.398 µM. Besides, the minimal effective concentration in the assay on PC3 cells is 1 µM. Consider `CCc1cc2ccc(C(C)(C#N)Cc3cccc(OC[C@@H](O)CO)c3)cc2[nH]c1=O` (some centres unmarked) [Compound 56], for which the IC50 at TANK-2 enzyme was 1.58 µM. Besides, the minimal effective concentration with PC3 cells was 3.16 µM. For `CCc1cc2ccc(C(C)(C#N)CCOc3cccc(C(F)(F)F)c3)cc2[nH]c1=O` (centres unmarked) [Compound 274], at TANK-2 enzyme, the IC50 is 2.51 µM. On to `CCc1cc2ccc(C(C)(C#N)Cc3nccc(OCCOC)n3)cc2[nH]c1=O` (centres unmarked) [Compound 369], for which, at TANK-2 enzyme, the IC50 was 0.631 µM. In addition, the minimal effective concentration in the assay on PC3 cells was 3.16 µM.

`CCc1cc2ccc(C(C)(C#N)Cc3cccc(C#CCN(C)C)c3)cc2[nH]c1=O` (centres unmarked) [Compound 298]: on TANK-2 enzyme, the IC50 is 1.58 µM. For the same molecule, the minimal effective concentration in the assay on PC3 cells was 1 µM.

In the case of `CCc1cc2ccc(C(C)(C#N)Cc3cccc(C#CCOC)c3)cc2[nH]c1=O` (centres unmarked) [Compound 297], the IC50 at TANK-2 enzyme is 1.58 µM. Moreover, the minimal effective concentration in the assay on PC3 cells is 0.1 µM. For the molecule `CCc1cc2ccc(C(C)(C#N)Cc3cc(OC)nc(C)n3)cc2[nH]c1=O` (centres unmarked) [Compound 366], the IC50 at TANK-2 enzyme is 0.158 µM. Also, in the assay on PC3 cells, the minimal effective concentration is less than 0.0316 µM. For `CCc1cc2ccc(C(C)(C#N)Cc3cc(OCCOC)nc(Cl)n3)cc2[nH]c1=O` (centres unmarked) [Compound 367], the IC50 on TANK-2 enzyme is 0.158 µM. Further, the minimal effective concentration in the assay on PC3 cells was 1 µM. For the molecule `CCC[C@@](C#N)(Cc1ccccc1)c1ccc2cc(CC)c(=O)[nH]c2c1` (single isomer, unassigned) [Compound 263], the IC50 on TANK-2 enzyme was 2 µM. Further, in the assay on PC3 cells, the minimal effective concentration was 3.16 µM. On to `CCc1cc2ccc([C@](C)(C#N)C[C@@H]3Cc4cc(C)ccc4O3)cc2[nH]c1=O` (single isomer, unassigned) [Compound 400], for which, on TANK-2 enzyme, the IC50 was 0.501 µM.

As for `CCc1cc2ccc(C(C)(C#N)Cc3cc(OC)nc(OC)n3)cc2[nH]c1=O` (centres unmarked) [Compound 358], the IC50 on TANK-2 enzyme is 0.1 µM. Consider `CCc1cc2ccc(C(C)(C#N)Cc3cccc(CNS(C)(=O)=O)c3)cc2[nH]c1=O` (centres unmarked) [Compound 170], for which the IC50 at TANK-2 enzyme was 0.794 µM. In addition, the minimal effective concentration with PC3 cells is 3.16 µM. The corresponding values for `CCc1cc2ccc(C(C)(C#N)Cc3nc(Cl)cc(OCCOC)n3)cc2[nH]c1=O` (centres unmarked) [Compound 370] are 0.251 µM and 1 µM.

With `CCc1cc2ccc(C(C)(C#N)Cc3cc(OC)ccn3)cc2[nH]c1=O` (centres unmarked) [Compound 373], the IC50 at TANK-2 enzyme was 0.501 µM. `CCc1cc2ccc([C@](C)(C#N)Cc3cccc(N(C)C)c3)cc2[nH]c1=O` (single isomer, unassigned) [Compound 259]: at TANK-2 enzyme, the IC50 is 0.2 µM. With `CCc1cc2ccc(C(C)(C#N)Cc3cnc(OC)nc3OC)cc2[nH]c1=O` (centres unmarked) [Compound 357], at TANK-2 enzyme, the IC50 is 0.0794 µM. Moreover, the minimal effective concentration with PC3 cells is 0.316 µM.

As to `CCc1cc2ccc([C@](C)(C#N)Cc3cccc(C#N)c3)cc2[nH]c1=O` (single isomer, unassigned) [Compound 269], at TANK-2 enzyme, the IC50 is 0.158 µM. For the same molecule, the minimal effective concentration in the assay with PC3 cells was 0.1 µM.

For the molecule `CCCn1ccnc1CC(C)(C#N)c1ccc2cc(CC)c(=O)[nH]c2c1` (centres unmarked) [Compound 335], the IC50 at TANK-2 enzyme was 0.501 µM. In the assay on PC3 cells, the minimal effective concentration is 10 µM. As to `CCc1cc2ccc(C(C)(C#N)Cc3cccc(CO)n3)cc2[nH]c1=O` (centres unmarked) [Compound 345], the IC50 on TANK-2 enzyme is 0.501 µM. On the same count and under the same terms, the same measure for `CCC[C@](C#N)(Cc1ccccc1)c1ccc2cc(CC)c(=O)[nH]c2c1` (single isomer, unassigned) [Compound 264]: 2.51 µM.
